{"source": "patent US9079863B2", "about": "“Crystalline forms for 5-amino-2,3-dihydrophthalazine-1,4-dione sodium salt, pharmaceutical preparations containing the same and method for the production of said forms” (METRIOPHARM AG, priority 2010, dated 2015)", "key": {"[1]": {"conditions": "for Disintegration temperature: 30-500° C. in synthetic air (4 N2: 1 O2); for Disintegration temperature / Endothermous solid phase transformation: sodium salt; for Endothermous solid phase transformation: 30-300° C. under helium", "description": "(Table 5). The solid phase transformation of the dihydrate according to U.S. Pat. No. 6,483,326 B1 was measured by means of the simultaneous thermogravimetry-differential thermal analysis with a Linseis L81-077 coupled with mass spectroscopy measurement with a Netzsch STA 449 C thermobalance, with MS and FTIR coupling at 30-300° C. under helium. The disintegration temperatures of forms I-II were determined with the same device at 30-500° C. in synthetic air (4 N2: 1 O2). The data were analyzed with the factory-set software Proteus."}, "physchem": {"assay": "physchem", "conditions": "in water at room temperature, saturated solution", "description": "Further, the solubility of the crystalline forms in a saturated solution was determined."}, "[2]": {"tested_on": "isolated mouse macrophages", "description": "For this purpose, the macrophages were first treated with form I (20 or 200 μg/mL). After 1 hour the treated macrophages were stimulated with LPS (10, 100 or 1,000 ng/mL). The supernatants were collected 24 h later, and the concentration of TNF-alpha and IL-6 was measured. Not stimulated macrophages, not stimulated macrophages treated with 200 μg/mL form I and LPS-stimulated macrophages (10, 100 or 1,000 ng/mL LPS) were used as controls."}, "[3]": {"conditions": "not infected mice; for Weight development/increase MW: over two days", "description": "(§1) In a mouse model of the Gram-positive sepsis (infection with S. pyogenes) the therapeutic usability of the crystal forms I and II of the 5-amino-2,3-dihydrophthalazine-1,4-dione sodium salt was tested. The administration of active ingredient was made parenterally 6 hours after the infection occurred. A second administration of active ingredient was made 24 hours after the first application. The test was completed 48 hours after the infection. For both forms (substance groups) three different doses were used. The mice obtained 2, 20 or 200 μg each of form I or form II per animal and application.\n(§2) The individual treatment groups comprised 5 animals each, and for the not infected controls two repetitions and for the infected controls and that groups that contained form II four repetitions were made, so that in total 180 animals were in the test.\nIt is known that the toxicity of substances in an animal test with growing-up mice or rate can influence the weight development."}, "S. pyogenes [4]": {"tested_on": "S. pyogenes", "conditions": "for Weight development/increase Total MW / Weight development/increase Day 1 MW: infected mice, sodium salt; for Weight development/increase Total MW: complete test time 48 h, survivors", "description": "as §1, §2\nIn the sepsis model described in Example 3, the influence of crystal forms I and II of the 5-amino-2,3-dihydrophthalazine-1,4-dione sodium salt on the weight development of mice infected with S. pyogenes was tested. The development of the body weight during an acute infection may supply important predictive information."}, "S. pyogenes [5]": {"tested_on": "S. pyogenes", "conditions": "48 hours after the infection", "description": "as §1, §2\nIn the sepsis model described in Example 3, the influence the crystal forms II and I of the 5-amino-2,3-dihydrophthalazine-1,4-dione sodium, salt on the probability of survival of the mice infected with S. pyogenes was tested."}, "S. pyogenes [6]": {"tested_on": "S. pyogenes", "conditions": "for Germ load (CFU) Blood MW / Germ load (CFU) Liver MW: 48 hours after the infection, sodium salt", "description": "as §1, §2\nIn the sepsis model described in Example 3, the influence of crystal forms II and I of the 5-amino-2,3-dihydrophthalazine-1,4-dione sodium salt on the germ load of the mice infected with S. pyogenes in blood and liver was tested. The test was completed 48 hours after the infection, and the germ load (CFU) existing at this time in blood and liver was determined (see Table)."}, "[7]": {"conditions": "healthy mice", "description": "as §1\nBlood taking occurred after 48 hours at the end of the second application day."}, "[8]": {"conditions": "healthy mice, end of the second application day", "text": "When administering form I and form II to healthy mice, it was investigated, whether and which influence the application has on certain liver enzymes, in particular the transaminases GOT (AST) and GPT (ALT). Blood taking occurred at the end of the second application day."}, "[9]": {"conditions": "0.25 g in 10 mL H2O VE, stirring 500 rpm, 25° C., first minutes after addition; sodium salt", "quoted_text": "The complete dissolution of 0.25 g form I or form II, respectively, in 10 mL H2O VE was achieved under stirring (500 rpm) at 25° C."}, "[10]": {"conditions": "200 μg/mL, not stimulated macrophages (no LPS)"}, "[11]": {"conditions": "dose 20 μg, LPS 10 ng/mL, supernatant 24 h"}, "[12]": {"conditions": "dose 20 μg, LPS 100 ng/mL, supernatant 24 h"}, "[13]": {"conditions": "dose 20 μg, LPS 1 mg/mL, supernatant 24 h"}, "[14]": {"conditions": "dose 200 μg, LPS 10 ng/mL, supernatant 24 h"}, "[15]": {"conditions": "dose 200 μg, LPS 100 ng/mL, supernatant 24 h"}, "[16]": {"conditions": "dose 200 μg, LPS 1 mg/mL, supernatant 24 h"}}, "note": "Counter-ions that a name gives are not always drawn. Like-named read-outs stand apart in the source and are kept apart here.", "data": [{"molecule": "Nc1cccc2c(=O)[nH][nH]c(=O)c12", "note": "[Form I, 5-amino-2,3-dihydrophthalazine-1,4-dione sodium salt]", "values": [{"measurement": "Disintegration temperature", "setting": "[1]; listed as form I", "result": 335, "unit": "°C"}, {"measurement": "Disintegration temperature", "setting": "[1]", "result": "335 °C ± 10 °C"}, {"measurement": "Time for which the crystalline form is stable", "setting": "[1]; room temperature (25° C.) and 40° C.", "result": "at least two"}, {"measurement": "Solubility", "setting": "physchem; water, thermodynamic from solid, Solubility", "result": 227, "unit": "mg/mL"}, {"measurement": "Immunodepressive effect", "setting": "[2]; 100 ng/5 mL LPS, 200 μg/mL", "result": "most distinct"}, {"measurement": "Change of TNF-alpha values", "setting": "[2]; 1 μg/mL LPS with 200 μg/mL", "result": "significant reduction"}, {"measurement": "Effect on not stimulated macrophages by TNF-alpha values", "setting": "[2]; 200 μg/mL, not stimulated", "result": "immunostimulating effect"}, {"measurement": "IL-6 MW", "setting": "[2]; [10]", "result": 0.24, "unit": "ng/mL"}, {"measurement": "TNF-alpha MW", "setting": "[2]; [10]", "result": 7.98, "unit": "ng/mL"}, {"measurement": "Effect in the combination groups with LPS", "setting": "[2]; all LPS groups", "result": "dose-dependent, immunodepressive effect"}, {"measurement": "IL-6 MW", "setting": "[2]; [11]", "result": 6.05, "unit": "ng/mL"}, {"measurement": "TNF-alpha MW", "setting": "[2]; [11]", "result": 13.27, "unit": "ng/mL"}, {"measurement": "IL-6 MW", "setting": "[2]; [12]", "result": 19.67, "unit": "ng/mL"}, {"measurement": "TNF-alpha MW", "setting": "[2]; [12]", "result": 27.17, "unit": "ng/mL"}, {"measurement": "IL-6 MW", "setting": "[2]; [13]", "result": 22.67, "unit": "ng/mL"}, {"measurement": "TNF-alpha MW", "setting": "[2]; [13]", "result": 47.91, "unit": "ng/mL"}, {"measurement": "IL-6 MW", "setting": "[2]; [14]", "result": 7.19, "unit": "ng/mL"}, {"measurement": "TNF-alpha MW", "setting": "[2]; [14]", "result": 20.74, "unit": "ng/mL"}, {"measurement": "IL-6 MW", "setting": "[2]; [15]", "result": 10.88, "unit": "ng/mL"}, {"measurement": "TNF-alpha MW", "setting": "[2]; [15]", "result": 16.47, "unit": "ng/mL"}, {"measurement": "IL-6 MW", "setting": "[2]; [16]", "result": 15.95, "unit": "ng/mL"}, {"measurement": "TNF-alpha MW", "setting": "[2]; [16]", "result": 32.53, "unit": "ng/mL"}, {"measurement": "Toxicity judged from weight development", "setting": "[3]", "result": "do not have any toxicity or at most a very small one"}, {"measurement": "Weight development/increase MW", "setting": "[3]; 2 μg per animal and application, parenteral, sodium salt", "result": -0.49, "unit": "g"}, {"measurement": "Weight development/increase MW", "setting": "[3]; 20 μg per animal and application, parenteral, sodium salt", "result": 1.48, "unit": "g"}, {"measurement": "Weight development/increase MW", "setting": "[3]; 200 μg per animal and application, parenteral, sodium salt", "result": 0.79, "unit": "g"}, {"measurement": "Weight development/increase MW", "setting": "[3]; all doses (total)", "result": 0.59, "unit": "g"}, {"measurement": "Weight loss compared to control groups", "setting": "S. pyogenes [4]; first 24 hours after the infection", "result": "lower weight losses"}, {"measurement": "Weight development/increase Total MW", "setting": "S. pyogenes [4]; 2 μg", "result": -2.41, "unit": "g"}, {"measurement": "Weight development/increase Day 1 MW", "setting": "S. pyogenes [4]; 2 μg", "result": -0.64, "unit": "g"}, {"measurement": "Weight development/increase Total MW", "setting": "S. pyogenes [4]; 20 μg", "result": -1.46, "unit": "g"}, {"measurement": "Weight development/increase Day 1 MW", "setting": "S. pyogenes [4]; 20 μg", "result": -0.09, "unit": "g"}, {"measurement": "Weight development/increase Total MW", "setting": "S. pyogenes [4]; 200 μg", "result": -1.69, "unit": "g"}, {"measurement": "Weight development/increase Day 1 MW", "setting": "S. pyogenes [4]; 200 μg", "result": -0.03, "unit": "g"}, {"measurement": "Weight development/increase Total MW", "setting": "S. pyogenes [4]; all doses (total)", "result": -1.85, "unit": "g"}, {"measurement": "Weight development/increase Day 1 MW", "setting": "S. pyogenes [4]; all doses (total)", "result": -0.25, "unit": "g"}, {"measurement": "Share of surviving mice", "setting": "S. pyogenes [5]; 2 μg, sodium salt", "result": 80, "unit": "%"}, {"measurement": "Share of surviving mice", "setting": "S. pyogenes [5]; 20 μg", "result": 80, "unit": "%"}, {"measurement": "Share of surviving mice", "setting": "S. pyogenes [5]; 200 μg, sodium salt", "result": 80, "unit": "%"}, {"measurement": "Survival compared to the controls", "setting": "S. pyogenes [5]", "result": "increase of the share of surviving animals"}, {"measurement": "Share of surviving mice", "setting": "S. pyogenes [5]; all doses (total)", "result": 80, "unit": "%"}, {"measurement": "Germ load (CFU) Blood MW", "setting": "S. pyogenes [6]; 2 μg", "result": 7.00, "unit": "log/mL"}, {"measurement": "Germ load (CFU) Liver MW", "setting": "S. pyogenes [6]; 2 μg", "result": 6.56, "unit": "log/g"}, {"measurement": "Germ load (CFU) Blood MW", "setting": "S. pyogenes [6]; 20 μg", "result": 6.33, "unit": "log/mL"}, {"measurement": "Germ load (CFU) Liver MW", "setting": "S. pyogenes [6]; 20 μg", "result": 6.57, "unit": "log/g"}, {"measurement": "Germ load (CFU) Blood MW", "setting": "S. pyogenes [6]; 200 μg", "result": 5.77, "unit": "log/mL"}, {"measurement": "Germ load (CFU) Liver MW", "setting": "S. pyogenes [6]; 200 μg", "result": 6.09, "unit": "log/g"}, {"measurement": "Germ load (CFU) Blood MW", "setting": "S. pyogenes [6]; all doses (total)", "result": 6.37, "unit": "log/mL"}, {"measurement": "Germ load (CFU) Liver MW", "setting": "S. pyogenes [6]; all doses (total)", "result": 6.41, "unit": "log/g"}, {"measurement": "Germ count in the blood compared to the controls", "setting": "S. pyogenes [6]; highest dose", "result": "tendentious germ count reduction"}, {"measurement": "TNF-alpha MW", "setting": "[7]; 2 μg, blood after 48 hours, sodium salt", "result": 128.8, "unit": "pg/mL"}, {"measurement": "TNF-alpha versus control groups and form II groups", "setting": "[7]; 20 μg dose, p<0.001", "result": "significantly different"}, {"measurement": "TNF-alpha MW", "setting": "[7]; 20 μg, blood after 48 hours, sodium salt", "result": 341.8, "unit": "pg/mL"}, {"measurement": "TNF-alpha MW", "setting": "[7]; 200 μg, blood after 48 hours, sodium salt", "result": 154.1, "unit": "pg/mL"}, {"measurement": "TNF-alpha MW", "setting": "[7]; all doses (total), blood after 48 hours, sodium salt", "result": 208.2, "unit": "pg/mL"}, {"measurement": "IL-6 increase", "setting": "[7]; blood after 48 hours", "result": "neither in the substance groups nor in the control groups increases could be found"}, {"measurement": "TNF-alpha increase", "setting": "[7]; compared to the other groups, sodium salt", "result": "distinct increases"}, {"measurement": "Transaminases GOT (AST) and GPT (ALT)", "setting": "[8]", "result": "Distinct differences between the groups could not be found"}, {"measurement": "Initial dissolution rate", "setting": "[9]", "result": "only retarded reaches its complete equilibrium concentration"}]}, {"molecule": "Nc1cccc2c(=O)[nH][nH]c(=O)c12", "note": "[Dihydrate, 5-amino-2,3-dihydrophthalazine-1,4-dione sodium salt]", "values": [{"measurement": "Endothermous solid phase transformation", "setting": "[1]; listed as dihydrate", "result": 85, "unit": "°C"}, {"measurement": "Endothermous solid phase transformation", "setting": "[1]", "result": "85 °C ± 10 °C"}, {"measurement": "Solubility", "setting": "physchem; sodium salt", "result": 168, "unit": "mg/mL"}]}]}
